# From the OPERA property sets (Mansouri et al. 2018)
# Conditions: not given
Structure (SMILES),boiling point [°C],melting point [°C],log10 Henry constant (atm·m³/mol),log10 vapour pressure (mmHg),ready biodegradability,log10 Koa,log10 Koc (L/kg)
CCC(C)(O)CCC(C)C (configuration not stated),173,,,,,,
CC(C)(C)C(C)(C)O,131,17,,,,,
N#CCc1ccccc1F,232,,,,,,
CCN(CC)CCN1C(=O)CN=C(c2ccccc2F)c2cc(Cl)ccc21,,79.5,,,,,
CC(F)F,-24.9,-117,-1.69,3.66,,,
Cc1c(F)c(F)c(C)c(F)c1F,144,36,,,,,
Clc1cc(Cl)c2c(c1)Oc1cc(Cl)c(Cl)cc1O2,,194,,-8.2,,,
CCC(C)=C(C)C,97.5,-118,,1.7,,,
CNCCO,158,-4.5,,0.0346,readily biodegradable,,
CC(C)=O,55.8,-96.5,-4.46,2.36,readily biodegradable,2.31,
CCc1c(C(=O)O)c(=O)cnn1-c1ccc(Cl)cc1,,269,,,,,
Oc1ccc(O)c(Br)c1,,112,,,,,
COC(=O)c1ccc(OC)c(OC)c1,283,60.8,,,,,
CS(=O)(=O)O.Cc1ccc(N(CC2=NCCN2)c2cccc(O)c2)cc1,,181,,,,,
C=CC(=O)O,141,13.5,,0.599,readily biodegradable,,
O=C1c2ccccc2C(=O)c2c1ccc1ccccc21,,170,,,not readily biodegradable,,
NNC(=O)c1ccccc1O,,148,,,,,
CN(C)C(=O)OC1=CC(=O)CC(C)(C)C1,,45.5,,,,,
O=C(O)c1c(F)cccc1F,,159,,,,,
CC[C@H](C)CC=O,121,,,,,,
CCOCC(O)CO (configuration not stated),222,,,,,,
CSc1ccc(O)cc1,,,,,not readily biodegradable,,
COc1nsnc1NS(=O)(=O)c1ccc(N)cc1,,150,,,,,
O=C(O)c1ccc(C(=O)O)nc1,,254,,,not readily biodegradable,,
OCCCc1ccccn1,260,34,,,,,

Structure (SMILES),boiling point [°C],melting point [°C],log10 Henry constant (atm·m³/mol),log10 vapour pressure (mmHg),ready biodegradability,log10 Koa,log10 Koc (L/kg)
On1nnc2ccccc21,,158,,,,,
C[C@]12CC[C@@H]3c4ccc(O)cc4CC[C@H]3[C@@H]1CC[C@@H]2O,,200,,,,,
FC(F)(F)C(F)(Cl)C(F)(Cl)C(F)(F)F (configuration not stated),63,-68,,,,,
CCN(CC)CCOC(=O)c1ccc(N)cc1Cl.Cl,,177,,,,,
CCCCCCCCCCCCCCCCCC1CCCCC1,397,38,,,,,
CCC(C)(CC)CC,118,-90.9,,1.36,,,
CCCCC1CCCCC1,181,-74.7,,0.119,,,
CC(C)CSCC(C)C,171,-106,,,,,
OC1(c2ccccc2)CCCCC1,,63.5,,,,,
Cc1c(Cl)c(Cl)c(Cl)c(Cl)c1Cl,301,225,-3.11,,,,
Cc1cc(C)c(C(=O)O)c(C)c1,,154,,,,,
COc1c(F)c(F)cc(F)c1F,138,,,,,,
Cc1ccc(N)c(C)c1,214,-14.3,,-0.876,not readily biodegradable,,
Cc1cc(C)cc(N)c1,220,9.8,,,not readily biodegradable,,
CCCC(=O)Nc1c(I)cc(I)c(CC(CC)C(=O)[O-])c1I.[Na+] (configuration not stated),,209,,,,,
CC1=CCOCC1,118,,,,,,
CCCCN(CCCC)CCCN,205,,,,,,
CNC(=O)Oc1ccc(C)c(C)c1,,79.5,,-3.24,,,
CCCCCCCCCCCCN(C)C,260,22,,,readily biodegradable,,
COc1ccc2c(c1)c(CC(=O)O)c(C)n2C(=O)c1ccc(Cl)cc1,,158,,,,,
Cl.ClCCN(Cc1ccccc1)Cc1ccccc1,,192,,,,,
N#Cc1c(F)cccc1F,,31,,,,,
N#CCc1ccccc1[N+](=O)[O-],,84,,,,,
CCOP(=S)(Oc1ccc([N+](=O)[O-])cc1)c1ccccc1 (configuration not stated),,36,,-6.02,not readily biodegradable,,3.12
CCC(C)c1cc([N+](=O)[O-])cc([N+](=O)[O-])c1O (configuration not stated),332,40,,,not readily biodegradable,,2.7

# Same assay, conditions: fish
Structure (SMILES),log10 BCF,log10 biotransformation half-life (days)
O=C1c2ccccc2C(=O)c2c1ccc1ccccc21,1.69,-0.84
O=C(O)c1ccc(C(=O)O)nc1,0.76,
Cc1c(Cl)c(Cl)c(Cl)c(Cl)c1Cl,3.83,
CCOP(=S)(Oc1ccc([N+](=O)[O-])cc1)c1ccccc1 (configuration not stated),2.97,
CCC(C)c1cc([N+](=O)[O-])cc([N+](=O)[O-])c1O (configuration not stated),1.79,
